# In ChEMBL document CHEMBL5620359, “Discovery of 2,5-disubstituted furan derivatives featuring a benzamide motif for overcoming P-glycoprotein mediated multidrug resistance in MCF-7/ADR cell” (Eur J Med Chem, 2023):
# Assays:
# Assay type in all cases: functional
# [1] = test system: MCF7; experiment: Cytotoxicity against human MCF7 cells assessed as cell survival rate at 5 uM incubated for 48 hrs by CCK8 assay relative to control
# [2] = test system: NCI/ADR-RES; experiment: Reversal activity against doxorubicin-mediated resistance in human MCF7ADR cells assessed as reversal fold by measuring ratio of doxorubicin IC50 to doxorubicin IC50 in presence of test compound at 5 uM incubated for 48 hrs by CCK8 assay
# [3] = test system: NCI/ADR-RES; experiment: Cytotoxicity against human MCF7ADR cells assessed as cell survival rate at 5 uM incubated for 48 hrs by CCK8 assay relative to control
# [4] = test system: NCI/ADR-RES; experiment: Reversal activity against doxorubicin-mediated resistance in human MCF7ADR cells assessed as reversal fold by measuring ratio of doxorubicin IC50 to doxorubicin IC50 in presence of test compound at 1 uM incubated for 48 hrs by CCK8 assay
SMILES,Activity [1] [%],fold change (FC) [2],Activity [3] [%],fold change (FC) [4]
COc1cc2c(cc1OC)CN(C(=O)c1ccc(-c3ccc(NC(=O)c4ccc(C#N)cc4)cc3)o1)CC2,85.6,41,56.7,
COc1cc2c(cc1OC)CN(C(=O)c1ccc(-c3ccc(NC(=O)c4ccccc4Cl)cc3)o1)CC2,65.5,66.9,82.5,
COc1cc2c(cc1OC)CN(C(=O)c1ccc(-c3cccc(NC(=O)c4ccc([N+](=O)[O-])cc4)c3)o1)CC2,99.8,32.6,99.7,
COc1cc2c(cc1OC)CN(C(=O)c1ccc(-c3ccc(NC(=O)c4ccccc4OC)cc3)o1)CC2,99.7,24.2,98.6,
COc1cc2c(cc1OC)CN(C(=O)c1ccc(-c3ccc(NC(=O)c4ccc(F)cc4)cc3)o1)CC2,53.6,53.5,70.6,
COc1cc(OC)cc(C(=O)Nc2cccc(-c3ccc(C(=O)N4CCc5cc(OC)c(OC)cc5C4)o3)c2)c1,63,30.1,73.9,
COc1cc2c(cc1OC)CN(C(=O)c1ccc(-c3ccc(NC(=O)c4ccccc4[N+](=O)[O-])cc3)o1)CC2,97.8,18.6,99.5,
COc1cccc(C(=O)Nc2cccc(-c3ccc(C(=O)N4CCc5cc(OC)c(OC)cc5C4)o3)c2)c1,59.4,59.8,75,
COc1cc2c(cc1OC)CN(C(=O)c1ccc(-c3ccc(NC(=O)c4ccc(Br)cc4)cc3)o1)CC2,97.2,48.4,96.3,
COc1cc2c(cc1OC)CN(C(=O)c1ccc(-c3ccc(NC(=O)c4ccc(Cl)cc4)cc3)o1)CC2,50.1,124,79.8,
COc1cc2c(cc1OC)CN(C(=O)c1ccc(-c3cccc(NC(=O)c4ccccc4[N+](=O)[O-])c3)o1)CC2,73.4,19.5,62.6,
COc1cc2c(cc1OC)CN(C(=O)c1ccc(-c3ccc(NC(=O)c4cccc(Cl)c4)cc3)o1)CC2,74.8,267.6,83.3,
COc1cc2c(cc1OC)CN(C(=O)c1ccc(-c3cccc(NC(=O)c4ccco4)c3)o1)CC2,,30.4,75.9,5.2
COc1cc2c(cc1OC)CN(C(=O)c1ccc(-c3ccc(NC(=O)c4ccccc4F)cc3)o1)CC2,77.1,11,99.2,
COc1cc2c(cc1OC)CN(C(=O)c1ccc(-c3ccccc3NC(=O)c3cccc([N+](=O)[O-])c3)o1)CC2,67.5,6.1,66.2,
COc1cc2c(cc1OC)CN(C(=O)c1ccc(-c3ccccc3NC(=O)c3ccccc3OC)o1)CC2,81.2,20.8,74.5,
COc1cc2c(cc1OC)CN(C(=O)c1ccc(-c3ccc(NC(=O)c4ccc(C(C)(C)C)cc4)cc3)o1)CC2,44.9,164,61.1,
C/C=C/C[C@@H](C)[C@@H](O)[C@H]1C(=O)N[C@@H](CC)C(=O)N(C)CC(=O)N(C)[C@@H](CC(C)C)C(=O)N[C@@H](C(C)C)C(=O)N(C)[C@@H](CC(C)C)C(=O)N[C@@H](C)C(=O)N[C@H](C)C(=O)N(C)[C@@H](CC(C)C)C(=O)N(C)[C@@H](CC(C)C)C(=O)N(C)[C@@H](C(C)C)C(=O)N1C [CYCLOSPORINE],87.5,59.1,89.4,
COc1cc2c(cc1OC)CN(C(=O)c1ccc(-c3ccccc3NC(=O)c3ccc([N+](=O)[O-])cc3)o1)CC2,86.2,24.3,99.6,
COc1cc2c(cc1OC)CN(C(=O)c1ccc(-c3cccc(NC(=O)c4ccccc4Cl)c3)o1)CC2,67.3,32.8,80.8,
COc1cc2c(cc1OC)CN(CCc1ccc(NC(=O)c3cc(OC)c(OC)cc3NC(=O)c3cnc4ccccc4c3)cc1)CC2,80.7,221.1,46.7,
COc1cc2c(cc1OC)CN(C(=O)c1ccc(-c3cccc(NC(=O)c4ccccc4OC)c3)o1)CC2,53.6,44.2,65,
COc1ccc(-c2ccc(C(=O)N3CCc4cc(OC)c(OC)cc4C3)o2)cc1,,9.1,94.1,
COc1cc2c(cc1OC)CN(C(=O)c1ccc(-c3ccc(NC(=O)c4ccc(N(C)C)cc4)cc3)o1)CC2,98.6,40,71.8,
COc1cc2c(cc1OC)CN(C(=O)c1ccc(-c3cccc(NC(=O)c4cccc([N+](=O)[O-])c4)c3)o1)CC2,69.6,23,76.5,

SMILES,Activity [1] [%],fold change (FC) [2],Activity [3] [%],fold change (FC) [4]
COc1cc2c(cc1OC)CN(C(=O)c1ccc(-c3ccc(NC(=O)c4ccccc4)cc3)o1)CC2,,221.1,73.5,5.3
COc1cc2c(cc1OC)CN(C(=O)c1ccc(-c3ccc(NC(=O)c4ccc(OC(F)(F)F)cc4)cc3)o1)CC2,61.3,118.3,72.8,
COc1cc2c(cc1OC)CN(C(=O)c1ccc(-c3ccccc3NC(=O)c3ccccc3)o1)CC2,,7.5,70.9,
COc1cc2c(cc1OC)CN(C(=O)c1ccc(-c3cccc(NC(=O)c4ccc(Cl)cc4)c3)o1)CC2,88.1,18,85.5,
COc1cc2c(cc1OC)CN(C(=O)c1ccc(-c3cccc(NC(=O)c4cccs4)c3)o1)CC2,,46.6,61.4,
COc1cc2c(cc1OC)CN(C(=O)c1ccc(-c3ccc(NC(=O)c4cccc(F)c4)cc3)o1)CC2,75.1,19.6,78.2,
COc1ccc(C(=O)Nc2cccc(-c3ccc(C(=O)N4CCc5cc(OC)c(OC)cc5C4)o3)c2)c(OC)c1,84.7,17.5,64.9,
COc1ccc(S(=O)(=O)N(c2ccc(-c3ccc(C(=O)N4CCc5cc(OC)c(OC)cc5C4)o3)cc2)S(=O)(=O)c2ccc(OC)cc2)cc1,92.6,21.9,94.6,
COc1cc(OC)cc(C(=O)Nc2ccccc2-c2ccc(C(=O)N3CCc4cc(OC)c(OC)cc4C3)o2)c1,70.5,13.1,97.3,
COc1ccc(C(=O)Nc2cccc(-c3ccc(C(=O)N4CCc5cc(OC)c(OC)cc5C4)o3)c2)cc1,32.4,72.6,62.1,
COc1cc2c(cc1OC)CN(C(=O)c1ccc(-c3ccc(NC(=O)c4ccc([N+](=O)[O-])cc4)cc3)o1)CC2,68.9,50.9,82.2,
COc1ccc(NC(=O)Nc2ccc(-c3ccc(C(=O)N4CCc5cc(OC)c(OC)cc5C4)o3)cc2)cc1,99.2,,98.2,
COc1cc2c(cc1OC)CN(C(=O)c1ccc(-c3ccccc3NC(=O)c3ccccc3Cl)o1)CC2,66.5,29.2,96.3,
COc1cccc(C(=O)Nc2ccc(-c3ccc(C(=O)N4CCc5cc(OC)c(OC)cc5C4)o3)cc2)c1,81.2,97.8,77.1,
COc1cc2c(cc1OC)CN(C(=O)c1ccc(-c3cccc(NC(=O)c4ccccc4)c3)o1)CC2,,45.8,76.1,
COc1cc2c(cc1OC)CN(C(=O)c1ccc(-c3ccc(NC(=O)c4cccc([N+](=O)[O-])c4)cc3)o1)CC2,79.2,53.5,71,
COc1cc2c(cc1OC)CN(C(=O)c1ccc(-c3cccc(NC(=O)c4cccc(Cl)c4)c3)o1)CC2,85.3,41,97.5,
COc1ccc(CNc2ccc(-c3ccc(C(=O)N4CCc5cc(OC)c(OC)cc5C4)o3)cc2)cc1,99.7,5.2,98.2,
COc1cc2c(cc1OC)CN(C(=O)c1ccc(-c3ccccc3NC(=O)c3ccc(Cl)cc3)o1)CC2,83,24,84.1,
COc1ccc(CCN(C)CCCC(C#N)(c2ccc(OC)c(OC)c2)C(C)C)cc1OC (centres undefined),99.6,,75,
COc1cc2c(cc1OC)CN(C(=O)c1ccc(-c3ccc(NC(=O)c4c(F)c(F)c(F)c(F)c4F)cc3)o1)CC2,92.4,45.4,98.2,
COc1ccc(C(=O)Nc2ccc(-c3ccc(C(=O)N4CCc5cc(OC)c(OC)cc5C4)o3)cc2)c(OC)c1,63.7,36.8,66.7,
COc1cc2c(cc1OC)CN(C(=O)c1ccc(-c3ccccc3NC(=O)c3cccc(Cl)c3)o1)CC2,53,45,80.4,
COc1cc2c(cc1OC)CN(C(=O)c1ccc(-c3ccc(NC(=O)c4ccc(-c5ccccc5)cc4)cc3)o1)CC2,98.7,17.1,95,
COc1cccc(C(=O)Nc2ccccc2-c2ccc(C(=O)N3CCc4cc(OC)c(OC)cc4C3)o2)c1,81.2,26.6,83,
